PubChem BioAssay (NCI)
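How tested: cells in 96-well plates exposed to compound for 48 hours at five concentrations. GI50 is the concentration that inhibits growth by half. TGI denotes the concentration required for complete inhibition of growth.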

Key:
Assay in all cases: NCI-60 cell line screen, 48 h
A549 NSCLC = tested on: A549 NSCLC
DMS 273 small cell lung = tested on: DMS 273 small cell lung
LOX IMVI melanoma = tested on: LOX IMVI melanoma
NCI-H522 lung = tested on: NCI-H522 lung
SW-620 colon = tested on: SW-620 colon
XF 498 CNS = tested on: XF 498 CNS
BT-549 breast = tested on: BT-549 breast
MDA-MB-435 = tested on: MDA-MB-435
NCI/ADR-RES ovarian = tested on: NCI/ADR-RES ovarian
KM20L2 colon = tested on: KM20L2 colon

## Nn1c(=O)n(Cc2ccccc2)n(-c2ccccc2)c1=O
A549 NSCLC
  TGI: > 100 µM
DMS 273 small cell lung
  TGI: > 100 µM
LOX IMVI melanoma
  TGI: > 100 µM
NCI-H522 lung
  TGI: > 100 µM
SW-620 colon
  TGI: > 100 µM
XF 498 CNS
  TGI: > 100 µM

## CC(C)(C)c1cc(C(C)(C)C)cc(S(=O)(=O)Nc2cc3ccccc3cc2C(=O)NCCN)c1
A549 NSCLC
  GI50: 1.95 µM
  TGI: 3.77 µM
BT-549 breast
  GI50: 1.67 µM
  TGI: 3.09 µM
LOX IMVI melanoma
  GI50: 1.6 µM
  TGI: 3.02 µM
MDA-MB-435
  GI50: 1.68 µM
  TGI: 3.18 µM
NCI-H522 lung
  GI50: 1.8 µM
  TGI: 3.72 µM
NCI/ADR-RES ovarian
  GI50: 2.37 µM
  TGI: 6.54 µM
SW-620 colon
  GI50: 1.93 µM
  TGI: 3.95 µM

## COC(=O)/C(=N\Nc1nnc(C)n1N)C(C#N)c1ccc(Cl)cc1 (stereo not drawn)
A549 NSCLC
  TGI: > 100 µM
DMS 273 small cell lung
  TGI: > 100 µM
KM20L2 colon
  TGI: > 100 µM
LOX IMVI melanoma
  TGI: > 100 µM
SW-620 colon
  TGI: > 100 µM
XF 498 CNS
  TGI: > 100 µM

## COc1cc2ncnc(Nc3ccc(C)c(O)c3)c2cc1OC
A549 NSCLC
  GI50: 18.1 µM
  TGI: > 25 µM
BT-549 breast
  GI50: 12.4 µM
  TGI: > 25 µM
LOX IMVI melanoma
  GI50: 10.3 µM
  TGI: > 25 µM
MDA-MB-435
  GI50: > 25 µM
  TGI: > 25 µM
NCI-H522 lung
  GI50: 2.83 µM
  TGI: > 18.6 µM
NCI/ADR-RES ovarian
  GI50: 16.4 µM
  TGI: > 25 µM
SW-620 colon
  GI50: > 25 µM
  TGI: > 25 µM

## CN(C)C(=O)c1cc2cnc(Nc3ccc(-c4csc5c(=S)cc(N6CCOCC6)oc45)cc3)nc2n1C1CCCC1
A549 NSCLC
  GI50: 0.823 µM
  TGI: 5.15 µM
BT-549 breast
  GI50: 0.698 µM
  TGI: 3.83 µM
LOX IMVI melanoma
  GI50: 0.355 µM
  TGI: 2.54 µM
MDA-MB-435
  GI50: 0.687 µM
  TGI: > 50 µM
NCI-H522 lung
  GI50: 1.3 µM
  TGI: > 50 µM
NCI/ADR-RES ovarian
  GI50: 1.02 µM
  TGI: > 50 µM
SW-620 colon
  GI50: 0.604 µM
  TGI: > 50 µM

## COC(=O)C1=CNC=C(C(=O)OC)C1C1=CC(=O)C(C)=CC1=O
A549 NSCLC
  GI50: 19.6 µM
  TGI: 42.1 µM
BT-549 breast
  GI50: 18.2 µM
  TGI: 34.3 µM
LOX IMVI melanoma
  GI50: 14 µM
  TGI: 28.6 µM
MDA-MB-435
  GI50: 15.9 µM
  TGI: 29.5 µM
NCI-H522 lung
  GI50: 19.8 µM
  TGI: 47.2 µM
NCI/ADR-RES ovarian
  GI50: 16.5 µM
  TGI: 31.2 µM
SW-620 colon
  GI50: 8.43 µM
  TGI: 22.2 µM

## O=C1CCN2C(=O)CCN12
A549 NSCLC
  TGI: > 100 µM
NCI-H522 lung
  TGI: > 100 µM
SW-620 colon
  TGI: > 100 µM
XF 498 CNS
  TGI: > 100 µM

## COC1=C(C)C(=O)c2c(c(COC(N)=O)c3n2CC2C3N2C)C1=O (stereo not drawn)
A549 NSCLC
  TGI: 0.0645 µM
BT-549 breast
  TGI: 0.167 µM
LOX IMVI melanoma
  TGI: 0.053 µM
MDA-MB-435
  TGI: 0.0921 µM
NCI-H522 lung
  TGI: 0.0304 µM
NCI/ADR-RES ovarian
  TGI: 0.336 µM
SW-620 colon
  TGI: 0.145 µM

## N=C1C(c2nc3ccccc3s2)=C(O)CN1c1cc(C(F)(F)F)ccc1Cl
A549 NSCLC
  GI50: 21.1 µM
  TGI: > 100 µM
BT-549 breast
  GI50: 43.4 µM
  TGI: > 100 µM
LOX IMVI melanoma
  GI50: 22.7 µM
  TGI: > 100 µM
MDA-MB-435
  GI50: 4.14 µM
  TGI: 36.1 µM
NCI-H522 lung
  GI50: 9.49 µM
  TGI: > 100 µM
NCI/ADR-RES ovarian
  GI50: 7.45 µM
  TGI: 37.6 µM
SW-620 colon
  GI50: 36.4 µM
  TGI: > 100 µM

## COc1ccc(/C=C/c2ccnc3ccccc23)c(OC)c1
A549 NSCLC
  TGI: > 10 µM
BT-549 breast
  TGI: > 10 µM
LOX IMVI melanoma
  TGI: > 10 µM
MDA-MB-435
  TGI: 5.09 µM
NCI-H522 lung
  TGI: > 10 µM
NCI/ADR-RES ovarian
  TGI: > 10 µM
SW-620 colon
  TGI: > 10 µM

## Clc1ccc(C2=Nn3c(COc4ccccc4Cl)nnc3SC2)c(Cl)c1
A549 NSCLC
  GI50: 23.6 µM
  TGI: > 100 µM
BT-549 breast
  GI50: 18.8 µM
  TGI: 54.2 µM
LOX IMVI melanoma
  GI50: 15.2 µM
  TGI: 28.7 µM
MDA-MB-435
  GI50: 20.1 µM
  TGI: 84.5 µM
NCI-H522 lung
  GI50: 22.6 µM
  TGI: 80.3 µM
NCI/ADR-RES ovarian
  GI50: > 100 µM
  TGI: > 100 µM
SW-620 colon
  GI50: 18.5 µM
  TGI: > 100 µM

## Cc1cn(C2CC(O)C(CO)O2)c(=O)n2nnnc12 (stereo not drawn)
A549 NSCLC
  TGI: > 100 µM
DMS 273 small cell lung
  TGI: > 100 µM
LOX IMVI melanoma
  TGI: > 100 µM
NCI-H522 lung
  TGI: > 100 µM
SW-620 colon
  TGI: > 100 µM

## CCC[CH2][Sn]1([CH2]CCC)[O]CC(CN2CCCC2)[O]1 (stereo not drawn)
A549 NSCLC
  GI50: 47.2 µM
  TGI: > 100 µM
DMS 273 small cell lung
  GI50: 16.3 µM
  TGI: 30.8 µM
KM20L2 colon
  GI50: 20.6 µM
  TGI: 52 µM
LOX IMVI melanoma
  GI50: 12.3 µM
  TGI: 26.8 µM
NCI-H522 lung
  GI50: 3.32 µM
  TGI: 11.1 µM
SW-620 colon
  GI50: 11.5 µM
  TGI: 27.6 µM

## NCCCCN(CCCN)/[N+]([O-])=N\O
A549 NSCLC
  TGI: > 100 µM
DMS 273 small cell lung
  TGI: > 100 µM
KM20L2 colon
  TGI: > 100 µM
NCI-H522 lung
  TGI: > 100 µM
SW-620 colon
  TGI: > 100 µM

## COc1nc2ccccc2cc1-c1nc2c(cnn2-c2ccc(Br)cc2)c(=O)[nH]1
A549 NSCLC
  GI50: 0.0837 µM
  TGI: > 50 µM
BT-549 breast
  GI50: 0.156 µM
  TGI: > 25.1 µM
LOX IMVI melanoma
  GI50: 0.0276 µM
  TGI: > 50 µM
MDA-MB-435
  GI50: 0.00957 µM
  TGI: 0.024 µM
NCI-H522 lung
  GI50: 0.0153 µM
NCI/ADR-RES ovarian
  GI50: 0.0186 µM
  TGI: 1.58 µM
SW-620 colon
  GI50: 0.0228 µM
  TGI: > 50 µM

## C[C@@H]1CC(=O)C2CCCC1C2=O (stereo partly drawn)
A549 NSCLC
  TGI: > 100 µM
DMS 273 small cell lung
  TGI: > 100 µM
KM20L2 colon
  TGI: > 100 µM
LOX IMVI melanoma
  TGI: > 100 µM
NCI-H522 lung
  TGI: > 100 µM
SW-620 colon
  TGI: > 100 µM

## CC(=O)[O-].CCN(CC)c1ccc(C=NCCN=Cc2ccc(N(CC)CC)cc2[O-])c([O-])c1.[Mn+3]
A549 NSCLC
  GI50: 34.5 µM
  TGI: > 100 µM
DMS 273 small cell lung
  GI50: 22.4 µM
  TGI: 45.8 µM
KM20L2 colon
  GI50: 17.8 µM
  TGI: 33.2 µM
LOX IMVI melanoma
  GI50: 20.3 µM
  TGI: 37.6 µM
NCI-H522 lung
  GI50: 43.3 µM
  TGI: 61.9 µM
SW-620 colon
  GI50: 27.4 µM
  TGI: 66.4 µM

## CN1CCN(CCCOc2ccc3nc(Nc4ccc(Cl)c(C(F)(F)F)c4)ccc3c2)CC1
A549 NSCLC
  GI50: 14.7 µM
  TGI: 28.9 µM
BT-549 breast
  GI50: 14.2 µM
  TGI: 27.7 µM
LOX IMVI melanoma
  GI50: 4.07 µM
  TGI: 15.9 µM
MDA-MB-435
  GI50: 11.7 µM
  TGI: 24.2 µM
NCI-H522 lung
  GI50: 14.1 µM
  TGI: 28.1 µM
NCI/ADR-RES ovarian
  GI50: 14.7 µM
  TGI: 33.2 µM
SW-620 colon
  GI50: 8.97 µM
  TGI: 22.1 µM

## COC1=CC(=O)c2nc(-c3cccc(C)n3)[nH]c2C1=O
A549 NSCLC
  GI50: 19.1 µM
  TGI: 39.1 µM
BT-549 breast
  GI50: 17.8 µM
  TGI: 36.5 µM
LOX IMVI melanoma
  GI50: 49.6 µM
  TGI: > 100 µM
MDA-MB-435
  GI50: 35.6 µM
  TGI: > 100 µM
NCI-H522 lung
  GI50: 19.1 µM
  TGI: 59.1 µM
NCI/ADR-RES ovarian
  GI50: 32.5 µM
  TGI: > 100 µM
SW-620 colon
  GI50: 21.4 µM
  TGI: 54.8 µM

## O=C1OC(c2ccccc2)=N/C1=C\c1cccc2ccccc12
A549 NSCLC
  TGI: > 100 µM
DMS 273 small cell lung
  TGI: > 100 µM
LOX IMVI melanoma
  TGI: > 100 µM
NCI-H522 lung
  TGI: > 100 µM
SW-620 colon
  TGI: > 100 µM
XF 498 CNS
  TGI: > 100 µM

## COC(C(O)CO)C(O)C(O)C(=O)NNc1ccccc1 (stereo not drawn)
A549 NSCLC
  TGI: > 100 µM
BT-549 breast
  TGI: > 100 µM
LOX IMVI melanoma
  TGI: > 100 µM
MDA-MB-435
  TGI: > 100 µM
NCI-H522 lung
  TGI: > 100 µM
NCI/ADR-RES ovarian
  TGI: > 100 µM
SW-620 colon
  TGI: > 100 µM
